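Here, GI50 denotes the concentration required for 50% inhibition of growth. At the TGI there is no net growth.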
What was measured:
Test in all cases: growth of human tumour cells (NCI), 384-well format
[1] = tested on: HOP-62 NSCLC
[2] = tested on: MDA-MB-435 melanoma
[3] = tested on: T-47D breast
[4] = tested on: NCI-H23 lung
[5] = tested on: UACC-62 melanoma
[6] = tested on: KM12 colon
[7] = tested on: OVCAR-5 ovarian
[8] = tested on: K-562 leukemia
[9] = tested on: A549 NSCLC
[10] = tested on: NCI-H322M lung
[11] = tested on: NCI-H226 lung
[12] = tested on: HCC-2998 colon
[13] = tested on: IGROV1 ovarian
[14] = tested on: DU-145 prostate
[15] = tested on: A498 renal
[16] = tested on: MDA-MB-468 breast
[17] = tested on: MALME-3M melanoma
[18] = tested on: BT-549 breast
[19] = tested on: ACHN renal
[20] = tested on: OVCAR-4 ovarian
[21] = tested on: SN12C renal
[22] = tested on: SK-OV-3 ovarian
[23] = tested on: HOP-92 NSCLC
[24] = tested on: 786-0 renal
[25] = tested on: HT29 colon
[26] = tested on: SR leukemia
[27] = tested on: M14 melanoma
[28] = tested on: SK-MEL-28 melanoma
[29] = tested on: HCT-15 colon

## COc1ccccc1-c1nccc(COc2ccccc2C[C@@H](Oc2ncnc3sc(-c4ccc(F)cc4)c(-c4ccc(OCCN5CCN(C)CC5)c(Cl)c4C)c23)C(=O)O)n1
[1]
  GI50: 1.71 µM
  TGI: 3.27 µM
[2]
  GI50: 0.391 µM
  TGI: 1.6 µM
[3]
  GI50: 1.58 µM
  TGI: 3.43 µM
[4]
  GI50: 0.0453 µM
  TGI: 0.38 µM
[5]
  GI50: 0.0206 µM
  TGI: 0.057 µM
[6]
  GI50: 1.73 µM
  TGI: 3.14 µM
[7]
  GI50: 2.73 µM
  TGI: 6.27 µM
[8]
  GI50: 1.93 µM
  TGI: 3.48 µM
[9]
  GI50: 10.6 µM
  TGI: 22.5 µM
[10]
  GI50: 1.91 µM
  TGI: 3.72 µM
[11]
  GI50: 2.04 µM
  TGI: 3.64 µM
[12]
  GI50: 1.19 µM
  TGI: 2.52 µM
[13]
  GI50: 1.66 µM
  TGI: 3.09 µM
[14]
  GI50: 2.13 µM
  TGI: 4.58 µM
[15]
  GI50: 2.26 µM
  TGI: 5.43 µM
[16]
  GI50: 0.0109 µM
  TGI: 0.054 µM
[17]
  GI50: 1.08 µM
  TGI: 2.29 µM
[18]
  GI50: 1.27 µM
  TGI: 2.55 µM
[19]
  GI50: 4.57 µM
  TGI: 14.8 µM
[20]
  GI50: 0.163 µM
  TGI: 3.11 µM
[21]
  GI50: 1.52 µM
  TGI: 2.9 µM
[22]
  GI50: 2.95 µM
  TGI: 9.17 µM
[23]
  GI50: 1.72 µM
  TGI: 3.1 µM
[24]
  GI50: 1.78 µM
  TGI: 3.21 µM
[25]
  GI50: 1.83 µM
  TGI: 3.33 µM
[26]
  GI50: < 0.01 µM
  TGI: < 0.01 µM
[27]
  GI50: 1.54 µM
  TGI: 2.89 µM
[28]
  GI50: 1.42 µM
  TGI: 2.73 µM
[29]
  GI50: 5.29 µM

From PubChem BioAssay (NCI)
